Experimental data from patent US9255110B2 (Hoffmann-La Roche Inc., priority 2010, dated 2016).

Biological target: IRAK-4 (Homo sapiens (Human), UniProt Q9NWZ3)
Test: In vitro IRAK-4 kinase assay
Format: biochemical
Details: purified recombinant IRAK-4, 50 uM ATP, 33P peptide phosphorylation
Procedure: Purified recombinant IRAK-4 protein was incubated with 250 uM synthetic peptide ([…]) in 30 ul of kinase buffer including (20 mM MOPS pH7.2, 25 mM beta glycerol phosphate, 5 mM EGTA, 1 mM sodium orthovanadate, 1 mM DTT, 50 uM ATP, 20 mM MgCl2, 10 uCi γ-^33P, 0.1% BSA) for the indicated time. For purified recombinant IRAK-1 protein kinase assay, 50 uM ATP was used. A 25 ul aliquot of the reaction mixture was transferred on to p81 phosphocellulose squares (Upstate Biotechnology, Lake Placid, N.Y.). The assay squares were washed three times with 0.75% phosphoric acid and once with acetone. Enzyme activity was measured by determining the bound radioactivity by liquid scintillation counting.

Sequence of IRAK-4 (Q9NWZ3 whole entry, species assumed): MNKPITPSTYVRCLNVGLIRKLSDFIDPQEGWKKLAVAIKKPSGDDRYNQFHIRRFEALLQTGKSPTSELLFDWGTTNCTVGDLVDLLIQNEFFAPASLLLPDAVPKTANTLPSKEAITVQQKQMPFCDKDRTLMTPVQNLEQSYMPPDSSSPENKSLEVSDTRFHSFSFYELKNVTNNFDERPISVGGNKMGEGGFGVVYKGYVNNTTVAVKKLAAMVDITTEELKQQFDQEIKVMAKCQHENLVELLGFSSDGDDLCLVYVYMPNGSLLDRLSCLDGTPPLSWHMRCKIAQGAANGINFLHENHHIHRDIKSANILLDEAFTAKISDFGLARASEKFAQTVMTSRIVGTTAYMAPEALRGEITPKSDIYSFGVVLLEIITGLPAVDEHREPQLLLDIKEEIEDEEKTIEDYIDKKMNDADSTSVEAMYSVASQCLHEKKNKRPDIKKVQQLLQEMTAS

Row | SMILES | IC50 [nM]
1 | Cc1ccn2ncc(C(=O)Nc3cc(Cl)ccc3OC3CCC(O)CC3)c2n1 (stereo not drawn) [Example 170, 5-Methyl-pyrazolo[1,5-alpha]pyrimidine-3-carboxylic acid [5-chloro-2-(4-hydroxy-cyclohexyloxy)-phenyl]-amide] | 6560
2 | O=C(Nc1cc(Cl)ccc1OCCC(O)CO)c1cnn2cccnc12 (stereo not drawn) [Example 96, Pyrazolo[1,5-alpha]pyrimidine-3-carboxylic acid [5-chloro-2-(3,4-dihydroxy-butoxy)-phenyl]-amide] | 506
3 | O=C(Nc1cc(Cl)ccc1OCCO)c1cnn2cccnc12 [Example 179, Pyrazolo[1,5-alpha]pyrimidine-3-carboxylic acid [5-chloro-2-(2-hydroxy-ethoxy)-phenyl]-amide] | 5000
4 | O=C(Nc1cc(Cl)ccc1OC[C@H](O)CO)c1cnn2cccnc12 [Example 163, Pyrazolo[1,5-alpha]pyrimidine-3-carboxylic acid [5-chloro-2-(2,3-dihydroxy-propoxy)-phenyl]-amide] | 4660
5 | COc1cc(C(=O)NCCO)ccc1NC(=O)c1csc2cncnc12 [Example 122, Thieno[3,2-d]pyrimidine-7-carboxylic acid [4-(2-hydroxy-ethylcarbamoyl)-2-methoxy-phenyl]-amide] | 1620
6 | COC(=O)COc1ccc(Cl)cc1NC(=O)c1cnn2cccnc12 [Example 160, {4-Chloro-2-[(pyrazolo[1,5-alpha]pyrimidine-3-carbonyl)-amino]-phenoxy}-acetic acid methyl ester] | 4300
7 | COc1cc(-c2ccccc2)c(C)cc1NC(=O)c1cnn2cccnc12 [Example 167, Pyrazolo[1,5-alpha]pyrimidine-3-carboxylic acid (5-methoxy-2-methyl-biphenyl-4-yl)-amide] | 5940
8 | CC(C)(CCO)Oc1ccc(Cl)cc1NC(=O)c1csc2cncnc12 [Example 117, Thieno[3,2-d]pyrimidine-7-carboxylic acid [5-chloro-2-(3-hydroxy-1,1-dimethyl-propoxy)-phenyl]-amide] | 1460

Further compounds by falling IC50, results first:

Row | IC50 [nM] | SMILES
9 | 1050 | Cc1ncoc1COc1ccc(Cl)cc1NC(=O)c1csc2cncnc12 [Example 115, Thieno[3,2-d]pyrimidine-7-carboxylic acid [5-chloro-2-(4-methyl-oxazol-5-ylmethoxy)-phenyl]-amide]
10 | 717 | O=C(Nc1cc(Cl)ccc1OC(F)F)c1cnn2cccnc12 [Example 107, Pyrazolo[1,5-alpha]pyrimidine-3-carboxylic acid (5-chloro-2-difluoromethoxy-phenyl)-amide]
11 | 314 | O=C(Nc1cc(Cl)ccc1N1CCCCC1)c1cnn2cccnc12 [Example 79, Pyrazolo[1,5-alpha]pyrimidine-3-carboxylic acid (5-chloro-2-piperidin-1-yl-phenyl)-amide]
12 | 301 | COc1cnc2c(C(=O)Nc3cc(Cl)ccc3OC3CCC(O)CC3)cnn2c1 (stereo not shown) [Example 76, 6-Methoxy-pyrazolo[1,5-a]pyrimidine-3-carboxylic acid [5-chloro-2-(4-hydroxy-cyclohexyloxy)-phenyl]-amide]
13 | 255 | COc1cc2cc(C)[nH]c2cc1NC(=O)c1cnn2cccnc12 [Example 72, Pyrazolo[1,5-alpha]pyrimidine-3-carboxylic acid (5-methoxy-2-methyl-1H-indol-6-yl)-amide]
14 | 43 | COc1cc2ncccc2cc1NC(=O)c1cnn2cccnc12 [Example 33, Pyrazolo[1,{tildeover (5)}alpha] pyrimidine-3-carboxylic acid (7-methoxy-quinolin-6-yl)-amide]
15 | 37 | NCC1CCN(c2ccc(Cl)cc2NC(=O)c2cnn3cccnc23)CC1 [Example 31, Pyrazolo[1,{tildeover (5)}alpha] pyrimidine-3-carboxylic acid [2-(4-aminomethyl-piperidin-1-yl)-5-chloro-phenyl]-amide]
16 | 8 | CNCC1CCN(c2ccc(Cl)cc2NC(=O)c2csc3cncnc23)CC1 [Example 8, Thieno[3,2-d]pyrimidine-7-carboxylic acid [5-chloro-2-(4-methylaminomethyl-piperidin-1-yl)-phenyl]-amide]
